From patent publication US11986471B2, “Compounds and methods of use” (Tango Therapeutics, Inc., priority 2018, dated 2024)

Assays:
PRMT5 [1] = target: T1, PRMT5 (Homo sapiens, UniProt O14744); test: PRMT5 IC50 assay in the presence of MTA as cofactor; type: biochemical; settings: for IC50: PRMT5, MTA as cofactor; for SAM/MTA Ratio: ratio between the Ki in the presence of SAM and the Ki in the presence of MTA
T1 construct: purchased Viva (custom protein)
In short: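 MTA-dependent versus SAM-dependent inhibition of human PRMT5 was assessed by IC50; conversion factors of 13.5 and 1.5 gave the corresponding Ki.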

HAP1 MTAP-intact = test: SDMA in-cell western assay, HAP1 MTAP-intact cell line; type: cell-based; settings: Homo sapiens
In short: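 HAP1 isogenic pair: endogenous MTAP vs MTAP-null. Readout SDMA by in-cell western; IC50 per line. Ratio ≥3 fold = MTAP-selective.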

PRMT5 [2] = target: T1, PRMT5; test: PRMT5 IC50 assay with no cofactor; type: biochemical
In short: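 Results given as IC50 (μM), from which Ki follows by dividing by 1.5 in the SAM condition or by 13.5 in the MTA condition. The ratio of SAM Ki to MTA Ki indicates MTA-cooperative preference.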

HAP1 MTAP-deleted = test: SDMA in-cell western assay, HAP1 MTAP-deleted cell line; type: cell-based; settings: for IC50: Homo sapiens, HAP1 MTAP-deleted cell line; for MTAP Intact/Deleted Ratio: IC50 ratio HAP1 MTAP-intact / HAP1 MTAP-deleted
In short: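 IC50 from SDMA in-cell western; HAP1 line lacking MTAP (null), paired isogenically with MTAP-intact HAP1 expressing endogenous MTAP.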

PRMT5 [3] = target: T1, PRMT5; test: PRMT5 IC50 assay in the presence of SAM as cofactor; type: biochemical
In short: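 Each compound is tested on PRMT5 in the presence of SAM, of MTA, and without any cofactor. Ki values are then back-calculated using fixed factors of 1.5 (SAM) and 13.5 (MTA), and the two Ki values are compared as a ratio.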

T1 sequence (O14744 whole entry): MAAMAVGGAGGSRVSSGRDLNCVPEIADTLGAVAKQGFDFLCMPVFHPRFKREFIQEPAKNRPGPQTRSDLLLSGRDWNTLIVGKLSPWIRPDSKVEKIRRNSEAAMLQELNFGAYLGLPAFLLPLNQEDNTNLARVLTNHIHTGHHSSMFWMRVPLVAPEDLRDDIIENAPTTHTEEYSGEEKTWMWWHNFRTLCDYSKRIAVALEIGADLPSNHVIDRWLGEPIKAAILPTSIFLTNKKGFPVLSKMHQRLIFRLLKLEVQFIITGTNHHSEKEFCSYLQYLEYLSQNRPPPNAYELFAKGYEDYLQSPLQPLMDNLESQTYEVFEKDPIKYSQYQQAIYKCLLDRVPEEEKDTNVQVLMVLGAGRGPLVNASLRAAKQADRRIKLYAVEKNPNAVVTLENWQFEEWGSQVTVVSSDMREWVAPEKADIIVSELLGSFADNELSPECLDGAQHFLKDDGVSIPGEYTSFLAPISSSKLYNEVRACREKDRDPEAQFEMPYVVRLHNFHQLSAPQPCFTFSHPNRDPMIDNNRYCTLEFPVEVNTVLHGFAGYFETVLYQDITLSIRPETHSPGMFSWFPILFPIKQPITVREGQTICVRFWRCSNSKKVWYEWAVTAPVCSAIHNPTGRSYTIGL
T1 sequence (Q9BQA1 whole entry partner): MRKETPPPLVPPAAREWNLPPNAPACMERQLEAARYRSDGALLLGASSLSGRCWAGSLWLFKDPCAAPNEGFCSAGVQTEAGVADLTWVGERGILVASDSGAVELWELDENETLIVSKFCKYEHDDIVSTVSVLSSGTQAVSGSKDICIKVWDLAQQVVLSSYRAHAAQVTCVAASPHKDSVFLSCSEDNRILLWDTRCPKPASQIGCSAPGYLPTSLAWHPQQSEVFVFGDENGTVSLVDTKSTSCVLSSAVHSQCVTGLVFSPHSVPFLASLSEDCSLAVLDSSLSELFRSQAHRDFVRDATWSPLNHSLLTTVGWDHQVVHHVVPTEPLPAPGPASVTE

| SMILES | IC50 (PRMT5 [1]) | IC50 (HAP1 MTAP-intact) | IC50 (PRMT5 [2]) | IC50 (HAP1 MTAP-deleted) | IC50 (PRMT5 [3]) | SAM/MTA Ratio (PRMT5 [1]) | MTAP Intact/Deleted Ratio (HAP1 MTAP-deleted) |
| --- | --- | --- | --- | --- | --- | --- | --- |
| Cc1c(OCc2cnco2)ccc2c1CCN(C[C@@H](O)CNC(=O)c1cc(NC3CCC3)ccn1)C2 [Compound 515, 4-(cyclobutylamino)-N-[(2S)-2-hydroxy-3-{5-methyl-6-[(1,3-oxazol-5-yl)methoxy]-1,2,3,4-tetrahydroisoquinolin-2-yl}propyl]pyridine-2-carboxamide] | 50 to 500 nM | 1000 to 10000 nM | ≥ 5000 nM | 1000 to 10000 nM | 500 to 5000 nM | A (a Ki ratio greater than or equal to 10 fold between the Ki in the presence of SAM and the Ki in the presence of MTA) | C* (an IC50 ratio of less than 3 fold between the IC50 in the HAP1 MTAP-intact cell line and the HAP1 MTAP-deleted cell line) |
| Cc1ncoc1COc1ccc2c(c1)CCN(C[C@@H](O)CNC(=O)c1cc(NC3CCC3)ccn1)C2 [Compound 516, 4-(cyclobutylamino)-N-[(2S)-2-hydroxy-3-(6-[(4-methyl-1,3-oxazol-5-yl)methoxy]-1,2,3,4-tetrahydroisoquinolin-2-yl}propyl]pyridine-2-carboxamide] | 50 to 500 nM | < 1000 nM | 500 to 5000 nM | < 1000 nM | 50 to 500 nM | A (a Ki ratio greater than or equal to 10 fold between the Ki in the presence of SAM and the Ki in the presence of MTA) | C* (an IC50 ratio of less than 3 fold between the IC50 in the HAP1 MTAP-intact cell line and the HAP1 MTAP-deleted cell line) |
| CC(=O)N1CCC(Nc2cc(C(=O)NC[C@H](O)CN3CCc4c(ccc(OCc5cnco5)c4C)C3)ccn2)CC1 [Compound 517] | 50 to 500 nM | ≥ 10000 nM | 500 to 5000 nM | 1000 to 10000 nM | 50 to 500 nM | A (a Ki ratio greater than or equal to 10 fold between the Ki in the presence of SAM and the Ki in the presence of MTA) | B* (an IC50 ratio greater than or equal to 3 fold but lower than 10 fold between the IC50 in the HAP1 MTAP-intact cell line and the HAP1 MTAP-deleted cell line) |
| Cc1c(OCc2cnco2)ccc2c1CCN(C[C@@H](O)CNC(=O)c1cc(NC3CCN(C(=O)C(C)C)CC3)ncn1)C2 [Compound 520, N-[(2S)-2-hydroxy-3-{5-methyl-6-[(1,3-oxazol-5-yl)methoxy]-1,2,3,4-tetrahydroisoquinolin-2-yl}propyl]-6-{[1-(2-methylpropanoyl)piperidin-4-yl]amino}pyrimidine-4-carboxamide] | 50 to 500 nM | ≥ 10000 nM | ≥ 5000 nM | 1000 to 10000 nM | 50 to 500 nM | A (a Ki ratio greater than or equal to 10 fold between the Ki in the presence of SAM and the Ki in the presence of MTA) | B* (an IC50 ratio greater than or equal to 3 fold but lower than 10 fold between the IC50 in the HAP1 MTAP-intact cell line and the HAP1 MTAP-deleted cell line) |
| Cc1c(OCc2cnco2)ccc2c1CCN(C[C@@H](O)CNC(=O)c1ccnc(NC3CN(C(=O)CC(C)C)C3)c1)C2 [Compound 522, (S)—N-(2-hydroxy-3-(5-methyl-6-(oxazol-5-ylmethoxy)-3N-dihydroisoquinolin-2(1H)-yl)propyl)-2-((1-(3-methylbutanoyl)azetidin-3-yl)amino)isonicotinamide] | 50 to 500 nM | ≥ 10000 nM | ≥ 5000 nM | ≥ 10000 nM | 50 to 500 nM | A (a Ki ratio greater than or equal to 10 fold between the Ki in the presence of SAM and the Ki in the presence of MTA) | C* (an IC50 ratio of less than 3 fold between the IC50 in the HAP1 MTAP-intact cell line and the HAP1 MTAP-deleted cell line) |
| Cc1c(OCc2cnco2)ccc2c1CCN(C[C@@H](O)CNC(=O)c1cc(NC3CCN(C(=O)CC(C)C)CC3)ncn1)C2 [Compound 528] | 50 to 500 nM | ≥ 10000 nM | 500 to 5000 nM | 1000 to 10000 nM | 50 to 500 nM | A (a Ki ratio greater than or equal to 10 fold between the Ki in the presence of SAM and the Ki in the presence of MTA) | C* (an IC50 ratio of less than 3 fold between the IC50 in the HAP1 MTAP-intact cell line and the HAP1 MTAP-deleted cell line) |

The next lines start with results.

| IC50 (PRMT5 [1]) | IC50 (HAP1 MTAP-intact) | IC50 (PRMT5 [2]) | IC50 (HAP1 MTAP-deleted) | IC50 (PRMT5 [3]) | SMILES | SAM/MTA Ratio (PRMT5 [1]) | MTAP Intact/Deleted Ratio (HAP1 MTAP-deleted) |
| --- | --- | --- | --- | --- | --- | --- | --- |
| 50 to 500 nM | ≥ 10000 nM | ≥ 5000 nM | ≥ 10000 nM | 50 to 500 nM | Cc1c(OCc2cnco2)ccc2c1CCN(C[C@@H](O)CNC(=O)c1cc(NC3CCN(C(=O)C(C)(C)C)CC3)ncn1)C2 [Compound 523, 6-{[1-(2,2-dimethylpropanoyl)piperidin-4-yl]amino}-N-[(2S)-2-hydroxy-3-{5-methyl-6-[(1,3-oxazol-5-yl)methoxy]-1,2,3,4-tetrahydroisoquinolin-2-yl}propyl]pyrimidine-4-carboxamide] | A (a Ki ratio greater than or equal to 10 fold between the Ki in the presence of SAM and the Ki in the presence of MTA) | C* (an IC50 ratio of less than 3 fold between the IC50 in the HAP1 MTAP-intact cell line and the HAP1 MTAP-deleted cell line) |
| 50 to 500 nM | ≥ 10000 nM | 500 to 5000 nM | 1000 to 10000 nM | 50 to 500 nM | CC(=O)N1CCC(Nc2cccc(C(=O)NC[C@H](O)CN3CCc4cc(OCc5cnco5)ccc4C3)c2)CC1 [Compound 527] | A (a Ki ratio greater than or equal to 10 fold between the Ki in the presence of SAM and the Ki in the presence of MTA) | B* (an IC50 ratio greater than or equal to 3 fold but lower than 10 fold between the IC50 in the HAP1 MTAP-intact cell line and the HAP1 MTAP-deleted cell line) |
| 50 to 500 nM | ≥ 10000 nM | 500 to 5000 nM | 1000 to 10000 nM | 50 to 500 nM | CC(=O)N1CCC(Nc2cccc(C(=O)NC[C@H](O)CN3CCc4c(ccc(OCc5cnco5)c4C)C3)c2)CC1 [Compound 529, 3-[(1-acetylpiperidin-4-yl)amino]-N-[(2S)-2-hydroxy-3-{5-methyl-6-[(1,3-oxazol-5-yl)methoxy]-1,2,3,4-tetrahydroisoquinolin-2-yl}propyl]benzamide] | A (a Ki ratio greater than or equal to 10 fold between the Ki in the presence of SAM and the Ki in the presence of MTA) | B* (an IC50 ratio greater than or equal to 3 fold but lower than 10 fold between the IC50 in the HAP1 MTAP-intact cell line and the HAP1 MTAP-deleted cell line) |
| 50 to 500 nM | ≥ 10000 nM | ≥ 5000 nM | ≥ 10000 nM | 50 to 500 nM | Cc1ncoc1COc1ccc2c(c1C)CCN(C[C@@H](O)CNC(=O)c1ccc3c(c1)CCN(C(=O)c1ccc(Br)cc1)C3)C2 [Compound 530] | A (a Ki ratio greater than or equal to 10 fold between the Ki in the presence of SAM and the Ki in the presence of MTA) | C* (an IC50 ratio of less than 3 fold between the IC50 in the HAP1 MTAP-intact cell line and the HAP1 MTAP-deleted cell line) |
| 50 to 500 nM | ≥ 10000 nM | 500 to 5000 nM | < 1000 nM | 50 to 500 nM | CC(=O)N1CC(Nc2cc(C(=O)NC[C@H](O)CN3CCc4c(ccc(OCc5cnco5)c4Cl)C3)nc(N3CCCCC3)n2)C1 [Compound 532] | A (a Ki ratio greater than or equal to 10 fold between the Ki in the presence of SAM and the Ki in the presence of MTA) | A* (an IC50 ratio greater than or equal to 10 fold between the IC50 in the HAP1 MTAP-intact cell line and the HAP1 MTAP-deleted cell line) |
